# Results published in publication PMC5218480 (PLoS ONE, 2017).
# Tested on: MV-4-11 cells
# Experiment: Gene expression microarray analysis (Affymetrix PrimeView) and GSEA
# Assay type: cell-based, human
# Parameters: RFU PODN (11730768_x_at) / Fold change /veh PODN (11730768_x_at) / RFU LINC00158 (11744669_a_at) / Fold change /veh LINC00158 (11744669_a_at) / RFU DUSP10 (11751237_a_at) / Fold change /veh DUSP10 (11751237_a_at) / RFU ID3 (11757404_x_at) / Fold change /veh ID3 (11757404_x_at) / RFU PLEKHG5 (11737974_s_at) / Fold change /veh PLEKHG5 (11737974_s_at) / RFU LRRC4B (11730491_at) / Fold change /veh LRRC4B (11730491_at) / RFU GIMAP4 (11747438_a_at) / Fold change /veh GIMAP4 (11747438_a_at) / RFU KRT8 (11758183_x_at) / Fold change /veh KRT8 (11758183_x_at) / RFU CNN1 (11734310_a_at) / Fold change /veh CNN1 (11734310_a_at) / RFU VPS37D (11726825_at) / Fold change /veh VPS37D (11726825_at) / RFU C10orf10 (11716522_x_at) / Fold change /veh C10orf10 (11716522_x_at) / RFU KIR2DL2 /// KIR2DL4 /// KIR2DL5A /// KIR2DL5B /// KIR2DS1 /// KIR2DS2 /// KIR2DS3 /// KIR2DS4 /// KIR3DL3 /// KIR3DL3 /// KIR3DS1 (11738374_at) / Fold change /veh KIR2DL2 /// KIR2DL4 /// KIR2DL5A /// KIR2DL5B /// KIR2DS1 /// KIR2DS2 /// KIR2DS3 /// KIR2DS4 /// KIR3DL3 /// KIR3DL3 /// KIR3DS1 (11738374_at) / RFU C1QL1 (11718748_at) / Fold change /veh C1QL1 (11718748_at) / RFU TMPRSS4 (11747572_a_at) / Fold change /veh TMPRSS4 (11747572_a_at) / RFU HAMP (11756126_x_at) / Fold change /veh HAMP (11756126_x_at) / RFU RNFT2 (11725882_a_at) / Fold change /veh RNFT2 (11725882_a_at) / RFU NR4A2 (11747474_a_at) / Fold change /veh NR4A2 (11747474_a_at) / RFU ABCC12 (11746883_a_at) / Fold change /veh ABCC12 (11746883_a_at) / RFU TMEM136 (11760407_x_at) / Fold change /veh TMEM136 (11760407_x_at) / RFU CLDN22 /// WWC2 (11732394_at) / Fold change /veh CLDN22 /// WWC2 (11732394_at) / RFU HLA-DPB1 (11760878_x_at) / Fold change /veh HLA-DPB1 (11760878_x_at) / RFU SPINT1 (11716480_a_at) / Fold change /veh SPINT1 (11716480_a_at) / RFU GAP43 (11754022_s_at) / Fold change /veh GAP43 (11754022_s_at) / RFU A4GNT (11735810_at) / Fold change /veh A4GNT (11735810_at) / RFU PRB3 (11715151_x_at) / Fold change /veh PRB3 (11715151_x_at) / RFU TUBB4B (11761932_at) / Fold change /veh TUBB4B (11761932_at) / RFU CAPN14 (11732068_a_at) / Fold change /veh CAPN14 (11732068_a_at) / RFU TMCC2 (11721928_a_at) / Fold change /veh TMCC2 (11721928_a_at) / RFU IRGQ (11745062_a_at) / Fold change /veh IRGQ (11745062_a_at) / RFU FAM174B (11720279_a_at) / Fold change /veh FAM174B (11720279_a_at) / RFU TMPRSS4 (11748680_a_at) / Fold change /veh TMPRSS4 (11748680_a_at) / RFU FAM212B (11763350_a_at) / Fold change /veh FAM212B (11763350_a_at) / RFU PLEKHG5 (11743358_a_at) / Fold change /veh PLEKHG5 (11743358_a_at) / RFU ZSCAN30 (11745921_a_at) / Fold change /veh ZSCAN30 (11745921_a_at) / RFU CMKLR1 (11741424_a_at) / Fold change /veh CMKLR1 (11741424_a_at) / RFU LOC101060620 /// MAPK8IP1 (11723275_at) / Fold change /veh LOC101060620 /// MAPK8IP1 (11723275_at) / RFU SPTSSB (11747773_x_at) / Fold change /veh SPTSSB (11747773_x_at) / RFU PRSS12 (11739890_at) / Fold change /veh PRSS12 (11739890_at) / RFU BIN1 (11741810_x_at) / Fold change /veh BIN1 (11741810_x_at) / RFU WNT11 (11732464_a_at) / Fold change /veh WNT11 (11732464_a_at) / RFU C10orf10 (11716521_a_at) / Fold change /veh C10orf10 (11716521_a_at) / RFU C5orf56 (11738089_at) / Fold change /veh C5orf56 (11738089_at) / RFU CYB561 (11721691_x_at) / Fold change /veh CYB561 (11721691_x_at) / RFU ANKRD19P (11752326_a_at) / Fold change /veh ANKRD19P (11752326_a_at) / RFU OR2T12 /// OR2T33 /// OR2T8 (11738714_s_at) / Fold change /veh OR2T12 /// OR2T33 /// OR2T8 (11738714_s_at) / RFU VCAN (11748164_a_at) / Fold change /veh VCAN (11748164_a_at) / RFU JSRP1 (11732532_at) / Fold change /veh JSRP1 (11732532_at) / RFU KRTAP10-11 (11738290_x_at) / Fold change /veh KRTAP10-11 (11738290_x_at) / RFU MYO3A (11730013_a_at) / Fold change /veh MYO3A (11730013_a_at) / RFU EBF3 (11725865_a_at) / Fold change /veh EBF3 (11725865_a_at) / RFU CAMK2N1 (11719241_x_at) / Fold change /veh CAMK2N1 (11719241_x_at) / RFU C5orf56 (11738088_a_at) / Fold change /veh C5orf56 (11738088_a_at) / RFU OLFML3 (11715873_a_at) / Fold change /veh OLFML3 (11715873_a_at) / RFU LOC100653217 /// NTM (11731650_a_at) / Fold change /veh LOC100653217 /// NTM (11731650_a_at) / RFU MAPK11 (11762145_a_at) / Fold change /veh MAPK11 (11762145_a_at) / RFU FIZ1 (11724087_x_at) / Fold change /veh FIZ1 (11724087_x_at) / RFU OASL (11726364_x_at) / Fold change /veh OASL (11726364_x_at) / RFU SOX15 (11748057_x_at) / Fold change /veh SOX15 (11748057_x_at) / RFU CD79A (11719716_a_at) / Fold change /veh CD79A (11719716_a_at) / RFU HIST1H1D (11736915_at) / Fold change /veh HIST1H1D (11736915_at) / RFU CASKIN2 (11723855_a_at) / Fold change /veh CASKIN2 (11723855_a_at) / RFU LOC730098 (11760151_x_at) / Fold change /veh LOC730098 (11760151_x_at) / RFU OR4N2 (11742367_at) / Fold change /veh OR4N2 (11742367_at) / RFU PRRT2 (11749266_a_at) / Fold change /veh PRRT2 (11749266_a_at) / RFU SNX32 (11753110_a_at) / Fold change /veh SNX32 (11753110_a_at) / RFU CDHR5 (11726645_a_at) / Fold change /veh CDHR5 (11726645_a_at) / RFU RCAN1 (11760418_a_at) / Fold change /veh RCAN1 (11760418_a_at) / RFU FAM167A (11723789_a_at) / Fold change /veh FAM167A (11723789_a_at) / RFU FAM26E (11764081_at) / Fold change /veh FAM26E (11764081_at) / RFU ISYNA1 (11749810_s_at) / Fold change /veh ISYNA1 (11749810_s_at) / RFU ACY1 (11761880_at) / Fold change /veh ACY1 (11761880_at) / RFU 11764098_at / Fold change /veh 11764098_at / RFU SAMD14 (11745864_x_at) / Fold change /veh SAMD14 (11745864_x_at) / RFU NPB (11741838_a_at) / Fold change /veh NPB (11741838_a_at) / RFU TMPRSS6 (11731388_a_at) / Fold change /veh TMPRSS6 (11731388_a_at) / RFU KRTAP10-2 (11738614_at) / Fold change /veh KRTAP10-2 (11738614_at) / RFU ARHGAP8 /// PRR5-ARHGAP8 (11727945_x_at) / Fold change /veh ARHGAP8 /// PRR5-ARHGAP8 (11727945_x_at) / RFU KRTAP5-7 /// NADSYN1 (11734609_at) / Fold change /veh KRTAP5-7 /// NADSYN1 (11734609_at) / RFU RASL12 (11751679_a_at) / Fold change /veh RASL12 (11751679_a_at) / RFU CDKN2B (11736163_a_at) / Fold change /veh CDKN2B (11736163_a_at) / RFU PRF1 (11729649_at) / Fold change /veh PRF1 (11729649_at) / RFU, ZNF638 /// ZNF638-IT1 / Fold change vs veh, ZNF638 /// ZNF638-IT1 / RFU, PANK3 / Fold change vs veh, PANK3 / RFU, SH3YL1 / Fold change vs veh, SH3YL1 / RFU, ZEB2 / Fold change vs veh, ZEB2 / RFU, NRIP1 / Fold change vs veh, NRIP1 / RFU, PTTG1IP / Fold change vs veh, PTTG1IP / RFU, CAPN2 / Fold change vs veh, CAPN2 / RFU, MED14 / Fold change vs veh, MED14 / RFU, SNORA58 / Fold change vs veh, SNORA58 / RFU, C1orf63 / Fold change vs veh, C1orf63 / RFU, LRRFIP1 / Fold change vs veh, LRRFIP1 / RFU, NDUFAF7 / Fold change vs veh, NDUFAF7 / RFU, SLC12A2 / Fold change vs veh, SLC12A2 / RFU, IBTK / Fold change vs veh, IBTK / RFU, ESF1 / Fold change vs veh, ESF1 / Fold change vs veh, TMEM50B / RFU, TAOK1 / Fold change vs veh, TAOK1 / RFU, ACBD3 / Fold change vs veh, ACBD3 / RFU, TMA16 / Fold change vs veh, TMA16 / RFU, RWDD3 / Fold change vs veh, RWDD3 / RFU, BCAT1 / Fold change vs veh, BCAT1 / RFU, EDEM3 / Fold change vs veh, EDEM3 / RFU, TMEM33 / Fold change vs veh, TMEM33 / RFU, WDR75 / Fold change vs veh, WDR75 / RFU, AHCTF1 / Fold change vs veh, AHCTF1 / RFU, TFRC / Fold change vs veh, TFRC / RFU, ZDHHC17 / Fold change vs veh, ZDHHC17 / RFU, NOM1 / Fold change vs veh, NOM1 / RFU, ARL8B / Fold change vs veh, ARL8B / RFU, ZBTB11 / Fold change vs veh, ZBTB11 / RFU, TAMM41 / Fold change vs veh, TAMM41 / RFU, KIAA1704 /// LOC100996395 / Fold change vs veh, KIAA1704 /// LOC100996395 / RFU, ING1 / Fold change vs veh, ING1 / RFU, TRMT61B / Fold change vs veh, TRMT61B / RFU, FUBP3 / Fold change vs veh, FUBP3 / RFU, TP53 / Fold change vs veh, TP53 / RFU, TNKS2 / Fold change vs veh, TNKS2 / RFU, ZFP14 / Fold change vs veh, ZFP14 / RFU, ACTR2 / Fold change vs veh, ACTR2 / RFU, PPP3R1 / Fold change vs veh, PPP3R1 / RFU, PIK3R1 / Fold change vs veh, PIK3R1 / RFU, HNRNPA1 / Fold change vs veh, HNRNPA1 / RFU, RNF170 / Fold change vs veh, RNF170 / RFU, ZNF28 / Fold change vs veh, ZNF28 / RFU, RNGTT / Fold change vs veh, RNGTT / RFU, OGT / Fold change vs veh, OGT / RFU, BRD1 / Fold change vs veh, BRD1 / RFU, MARS / Fold change vs veh, MARS / RFU, ZNF655 / Fold change vs veh, ZNF655 / RFU, FAHD1 / Fold change vs veh, FAHD1 / RFU, BDP1 / Fold change vs veh, BDP1 / RFU, LRRCC1 / Fold change vs veh, LRRCC1 / RFU, ARID1A / Fold change vs veh, ARID1A / RFU, ZNF146 / Fold change vs veh, ZNF146 / RFU, ZNF330 / Fold change vs veh, ZNF330 / RFU, GPN3 / Fold change vs veh, GPN3 / RFU, C9orf123 / Fold change vs veh, C9orf123 / RFU, N4BP2L2 / Fold change vs veh, N4BP2L2 / RFU, ARFIP1 / Fold change vs veh, ARFIP1 / RFU, FAM179B / Fold change vs veh, FAM179B / RFU, BCL10 / Fold change vs veh, BCL10 / RFU, UHRF1BP1L / Fold change vs veh, UHRF1BP1L / RFU, BET1 / Fold change vs veh, BET1 / RFU, CNOT2 / Fold change vs veh, CNOT2 / RFU, ZNF268 / Fold change vs veh, ZNF268 / Fold change vs veh, ZNF507 / RFU, DGCR2 / Fold change vs veh, DGCR2 / RFU, WDSUB1 / Fold change vs veh, WDSUB1 / Fold change vs veh, HSP90B1 /// MIR3652 / RFU, ADSS / Fold change vs veh, ADSS / RFU, GK / Fold change vs veh, GK / RFU, ZNF148 / Fold change vs veh, ZNF148 / RFU, TAF9 / Fold change vs veh, TAF9 / RFU, SLC1A5 / Fold change vs veh, SLC1A5 / RFU, SLMO2 / Fold change vs veh, SLMO2 / RFU, ABCC4 / Fold change vs veh, ABCC4 / RFU, LOC101060439 /// RAP1B / Fold change vs veh, LOC101060439 /// RAP1B / RFU, RFX7 / Fold change vs veh, RFX7 / RFU, GTPBP10 / Fold change vs veh, GTPBP10 / RFU, CNEP1R1 / Fold change vs veh, CNEP1R1 / RFU, BIVM-ERCC5 /// ERCC5 / Fold change vs veh, BIVM-ERCC5 /// ERCC5 / RFU, ILF3 / Fold change vs veh, ILF3 / RFU 11762660_at / Fold change /veh 11762660_at / RFU VCAN (11757783_s_at) / Fold change /veh VCAN (11757783_s_at) / RFU DDX43 (11728927_at) / Fold change /veh DDX43 (11728927_at) / RFU KRT8 (11758188_x_at) / Fold change /veh KRT8 (11758188_x_at) / RFU NKD1 (11759106_at) / Fold change /veh NKD1 (11759106_at) / RFU SRD5A1 (11742802_a_at) / Fold change /veh SRD5A1 (11742802_a_at) / RFU TPSAB1 /// TPSB2 (11721975_s_at) / Fold change /veh TPSAB1 /// TPSB2 (11721975_s_at) / RFU GSTM3 (11746129_a_at) / Fold change /veh GSTM3 (11746129_a_at) / RFU IL23R (11737362_x_at) / Fold change /veh IL23R (11737362_x_at) / RFU TMEM51 (11727254_a_at) / Fold change /veh TMEM51 (11727254_a_at) / RFU PIWIL2 (11732686_x_at) / Fold change /veh PIWIL2 (11732686_x_at) / RFU ORM1 (11744905_x_at) / Fold change /veh ORM1 (11744905_x_at) / RFU CCDC152 (11743942_at) / Fold change /veh CCDC152 (11743942_at) / RFU ECM1 (11717891_a_at) / Fold change /veh ECM1 (11717891_a_at) / RFU IL23R (11748794_a_at) / Fold change /veh IL23R (11748794_a_at) / RFU TNFAIP8L3 (11732012_x_at) / Fold change /veh TNFAIP8L3 (11732012_x_at) / RFU MBOAT4 (11741988_at) / Fold change /veh MBOAT4 (11741988_at) / RFU 11764193_at / Fold change /veh 11764193_at / RFU TMEM53 (11763286_at) / Fold change /veh TMEM53 (11763286_at) / RFU MAGEB2 (11727129_at) / Fold change /veh MAGEB2 (11727129_at) / RFU TMEM200A (11744735_a_at) / Fold change /veh TMEM200A (11744735_a_at) / RFU CCDC152 (11751479_a_at) / Fold change /veh CCDC152 (11751479_a_at) / RFU FAM211A (11726209_a_at) / Fold change /veh FAM211A (11726209_a_at) / RFU RGS16 (11746705_a_at) / Fold change /veh RGS16 (11746705_a_at) / RFU VCAN (11755009_s_at) / Fold change /veh VCAN (11755009_s_at) / RFU RHOB (11743442_s_at) / Fold change /veh RHOB (11743442_s_at) / RFU RGS16 (11720943_a_at) / Fold change /veh RGS16 (11720943_a_at) / RFU RGS16 (11720944_at) / Fold change /veh RGS16 (11720944_at) / RFU, VPS4B / Fold change vs veh, VPS4B / RFU, CREB1 / Fold change vs veh, CREB1 / RFU, DNAJC13 / Fold change vs veh, DNAJC13 / RFU, GNAQ / Fold change vs veh, GNAQ / RFU, CDK5R1 / Fold change vs veh, CDK5R1 / RFU, ZRANB3 / Fold change vs veh, ZRANB3 / RFU, CUL4A / Fold change vs veh, CUL4A / RFU, CCNY / Fold change vs veh, CCNY / RFU, UFL1 / Fold change vs veh, UFL1 / RFU, COG3 / Fold change vs veh, COG3 / RFU, DIAPH2 / Fold change vs veh, DIAPH2 / RFU, SKA2 / Fold change vs veh, SKA2 / RFU, AFF3 / Fold change vs veh, AFF3 / RFU, LMF1 / Fold change vs veh, LMF1 / RFU, IPO11 / Fold change vs veh, IPO11 / RFU, DFFB / Fold change vs veh, DFFB / RFU, FOXP1 / Fold change vs veh, FOXP1 / RFU, CARD8 / Fold change vs veh, CARD8 / RFU, STRN3 / Fold change vs veh, STRN3 / RFU, ADK / Fold change vs veh, ADK / RFU, RASSF2 / Fold change vs veh, RASSF2 / RFU, WIPF1 / Fold change vs veh, WIPF1 / RFU, LARP1B / Fold change vs veh, LARP1B / RFU, RASA1 / Fold change vs veh, RASA1 / RFU, RB1 / Fold change vs veh, RB1 / RFU, PPFIA1 / Fold change vs veh, PPFIA1 / RFU, MAT2A / Fold change vs veh, MAT2A / RFU, CCT5 / Fold change vs veh, CCT5 / RFU, WDR92 / Fold change vs veh, WDR92 / RFU, CUX1 / Fold change vs veh, CUX1 / RFU, TTC7A / Fold change vs veh, TTC7A / RFU, TMEM135 / Fold change vs veh, TMEM135 / RFU, DEPTOR / Fold change vs veh, DEPTOR / RFU, CPM / Fold change vs veh, CPM / RFU, DNAJB6 / Fold change vs veh, DNAJB6 / RFU, CACNA2D3 / Fold change vs veh, CACNA2D3 / RFU, DTX4 / Fold change vs veh, DTX4 / RFU, TFCP2 / Fold change vs veh, TFCP2 / RFU, GMCL1 /// GMCL1P1 / Fold change vs veh, GMCL1 /// GMCL1P1 / RFU, AEBP2 / Fold change vs veh, AEBP2 / RFU, SNHG1 /// SNORD22 /// SNORD25 /// SNORD26 /// SNORD27 /// SNORD28 /// SNORD29 /// SNORD31 / Fold change vs veh, SNHG1 /// SNORD22 /// SNORD25 /// SNORD26 /// SNORD27 /// SNORD28 /// SNORD29 /// SNORD31 / Fold change (Aza/veh), C12orf56 (ProbeSet 11735607_a_at) / Fold change (ACY-1035/veh), C12orf56 (ProbeSet 11735607_a_at) / Fold change (Aza/veh), FGFR1OP (ProbeSet 11751329_s_at) / Fold change (ACY-1035/veh), FGFR1OP (ProbeSet 11751329_s_at) / Fold change (Aza/veh), VPS36 (ProbeSet 11739960_a_at) / Fold change (ACY-1035/veh), VPS36 (ProbeSet 11739960_a_at) / RFU SYPL1 (11715823_x_at) / Fold change /veh SYPL1 (11715823_x_at) / RFU IGFBP7 (11715501_s_at) / Fold change /veh IGFBP7 (11715501_s_at) / RFU REEP3 (11722064_at) / Fold change /veh REEP3 (11722064_at) / RFU IGLL1 (11728026_x_at) / Fold change /veh IGLL1 (11728026_x_at): dose or concentration left out as unconfirmed
# Settings: ProbeSet 11716844_s_at; LIST D
structure (smiles),measurement,value
Nc1ncn([C@@H]2O[C@H](CO)[C@@H](O)[C@H]2O)c(=O)n1 [azacitidine],"Fold change vs veh, DNAJC13",0.78
